The target in this test is Btk (Homo sapiens, UniProt Q06187). The experiment in a line: Btk in vitro inhibitory activity, acellular kinase assay (TR-FRET). Type of test: biochemical. How it is done: Btk kinase activity is determined using a time-resolved fluorescence resonance energy transfer (TR-FRET) methodology. Measurements are performed in a reaction volume of 50 μL using 96-well assay plates. Kinase enzyme, inhibitor, ATP (at the Km for the kinase), and 1 μM peptide substrate (Biotin-AVLESEEELYSSARQ-NH2) are incubated in a reaction buffer composed of 20 mM Tris, 50 mM NaCl, MgCl2 (5-25 mM depending on the kinase), MnCl2 (0-10 mM), 1 mM DTT, 0.1 mM EDTA, 0.01% bovine serum albumin, 0.005% Tween-20, and 10% DMSO at pH 7.4 for one hour. The reaction is quenched by the addition of 1.2 equivalents of EDTA (relative to divalent cation) in 25 μL of 1× Lance buffer (Perkin-Elmer). Streptavidin-APC (Perkin-Elmer) and Eu-labeled p-Tyr100 antibody (Perkin-Elmer) in 1× Lance buffer are added in a 25 μL volume to give final concentrations of 100 nM and 2.5 nM, respectively, and the mixture is allowed to incubate for one hour. The TR-FRET signal is measured on a multimode plate reader with an excitation wavelength (λEx) of 330 nm and detection wavelengths (λEm) of 615 and 665 nm. Activity is determined by the ratio of the fluorescence at 665 nm to that at 615 nm. For each compound, enzyme activity is measured at various concentrations of compound. Negative control reactions are performed in the absence of inhibitor in replicates of six, and two no-enzyme controls were used to determine baseline fluorescence levels. Inhibition constants, Ki(app), are obtained using the program BatchKi (Kuzmic et al. (2000), Anal. Biochem. 286:45-50). IC50s are obtained according to the equation: IC50={Ki(app)/(1+[ATP]/Km^ATP)}+[E]total/2;
Btk, sequence (Q06187 whole entry): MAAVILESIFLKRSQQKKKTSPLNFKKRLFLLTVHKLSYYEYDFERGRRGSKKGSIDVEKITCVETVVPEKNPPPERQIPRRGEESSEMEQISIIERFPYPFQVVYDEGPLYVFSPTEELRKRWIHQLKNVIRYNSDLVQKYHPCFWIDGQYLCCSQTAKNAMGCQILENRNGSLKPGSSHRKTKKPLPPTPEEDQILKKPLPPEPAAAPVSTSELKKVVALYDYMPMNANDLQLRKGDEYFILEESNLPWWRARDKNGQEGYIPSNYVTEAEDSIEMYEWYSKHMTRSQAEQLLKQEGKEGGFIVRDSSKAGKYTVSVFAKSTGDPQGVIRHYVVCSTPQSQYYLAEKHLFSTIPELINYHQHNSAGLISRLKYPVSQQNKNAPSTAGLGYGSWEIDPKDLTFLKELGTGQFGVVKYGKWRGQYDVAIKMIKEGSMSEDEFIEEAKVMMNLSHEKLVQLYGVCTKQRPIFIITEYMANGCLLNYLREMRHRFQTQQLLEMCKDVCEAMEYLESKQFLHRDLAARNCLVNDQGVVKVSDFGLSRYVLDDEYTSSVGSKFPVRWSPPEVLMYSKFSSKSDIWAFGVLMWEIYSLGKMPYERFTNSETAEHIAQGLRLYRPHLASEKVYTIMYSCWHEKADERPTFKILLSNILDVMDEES
For all kinases, [ATP]=Km^ATP, [Btk]total=0.5 nM and [Lck]total=6 nM.
On the technique in general: Time-resolved FRET reads energy transfer from a long-lived donor to a nearby acceptor.

The structures appear in SMILES notation.

Usually IC50 stands for the concentration that inhibits the measured activity by half. Lower therefore signals higher potency.

In turn, `CC(C)N(C/C=C/C(=O)N1CC[C@@H](n2nc(-c3ccc(Oc4ccccc4)cc3)c3c(N)ncnc32)C1)C1CCC1` [Example 2aq, (R,E)-1-(3-(4-amino-3-(4-phenoxyphenyl)-1H-pyrazolo[3,4-d]pyrimidin-1-yl)pyrrolidin-1-yl)-4-(cyclobutyl(isopropyl)amino)but-2-en-1-one] returned an IC50 of less than 100 nM. To `CN(C/C=C/C(=O)Nc1cccc(-n2nc(-c3ccc(Oc4ccccc4)cc3)c3c(N)ncnc32)c1)C1CCC1` [Example 7g, (E)-N-(3-(4-amino-3-(4-phenoxyphenyl)-1H-pyrazolo[3,4-d]pyrimidin-1-yl)phenyl)-4-(cyclobutyl(methyl)amino)but-2-enamide] belongs less than 100 nM; to `CCN(C/C=C/C(=O)N1CC[C@@H](n2nc(-c3ccc(Oc4ccccc4)cc3)c3c(N)ncnc32)C1)C1CCC1` [Example 2ap, (R,E)-1-(3-(4-amino-3-(4-phenoxyphenyl)-1H-pyrazolo[3,4-d]pyrimidin-1-yl)pyrrolidin-1-yl)-4-(cyclobutyl(ethyl)amino)but-2-en-1-one], less than 100 nM. To `CN(C/C=C/C(=O)N1CC[C@@H](n2nc(-c3ccc(Oc4ccccc4)cc3)c3c(N)ncnc32)C1)[C@@H]1CCOC1` [Example 2b, (E)-1-((R)-3-(4-amino-3-(4-phenoxyphenyl)-1H-pyrazolo[3,4-d]pyrimidin-1-yl)pyrrolidin-1-yl)-4-(methyl((R)-tetrahydrofuran-3-yl)amino)but-2-en-1-one] belongs less than 100 nM; to `Nc1ncnc2c1c(-c1ccc(Oc3ccccc3)cc1)nn2[C@@H]1CCN(C(=O)/C=C/CNC2CCCC2)C1` [Example 2z, (R,E)-1-(3-(4-amino-3-(4-phenoxyphenyl)-1H-pyrazolo[3,4-d]pyrimidin-1-yl)pyrrolidin-1-yl)-4-(cyclopentylamino)but-2-en-1-one], less than 100 nM; to `CN(C(=O)/C=C/CN(C)C1CCC1)c1ccc(-n2nc(-c3ccc(Oc4ccccc4)cc3)c3c(N)ncnc32)cc1` [Example 7c, (E)-N-(4-(4-amino-3-(4-phenoxyphenyl)-1H-pyrazolo[3,4-d]pyrimidin-1-yl)phenyl)-4-(cyclobutyl(methyl)amino)-N-methylbut-2-enamide], less than 100 nM. For `Nc1ncnc2c1c(-c1ccc(Oc3ccccc3)cc1)nn2[C@@H]1CCN(C(=O)/C=C/CNC2CCOCC2)C1` [Example 1d, (R,E)-1-(3-(4-amino-3-(4-phenoxyphenyl)-1H-pyrazolo[3,4-d]pyrimidin-1-yl)pyrrolidin-1-yl)-4-(tetrahydro-2H-pyran-4-ylamino)but-2-en-1-one] the value was less than 100 nM; for `Nc1ncnc2c1c(-c1ccc(Oc3ccccc3)cc1)nn2[C@@H]1CCCN(C(=O)/C=C/CN[C@H]2CCOC2)C1` [Example 2k, (E)-1-((R)-3-(4-amino-3-(4-phenoxyphenyl)-1H-pyrazolo[3,4-d]pyrimidin-1-yl)piperidin-1-yl)-4-((S)-tetrahydrofuran-3-ylamino)but-2-en-1-one], less than 100 nM; for `CN(C/C=C/C(=O)N1CC[C@@H](n2nc(-c3ccc(Oc4ccccc4)cc3)c3c(N)ncnc32)C1)C1CCOCC1` [Example 1k, (R,E)-1-(3-(4-amino-3-(4-phenoxyphenyl)-1H-pyrazolo[3,4-d]pyrimidin-1-yl)pyrrolidin-1-yl)-4-(methyl(tetrahydro-2H-pyran-4-yl)amino)but-2-en-1-one], less than 100 nM. With `CN(C/C=C/C(=O)N1CC[C@@H](n2nc(-c3ccc(Oc4ccccc4)cc3)c3c(N)ncnc32)C1)C1CCCCC1` [Example 2w, (R,E)-1-(3-(4-amino-3-(4-phenoxyphenyl)-1H-pyrazolo[3,4-d]pyrimidin-1-yl)pyrrolidin-1-yl)-4-(cyclohexyl(methyl)amino)but-2-en-1-one], the IC50 is less than 100 nM. To `CN1CCC(N(C)C/C=C/C(=O)N2CCC[C@@H](n3nc(-c4ccc(Oc5ccccc5)cc4)c4c(N)ncnc43)C2)CC1` [Example 2an, (R,E)-1-(3-(4-amino-3-(4-phenoxyphenyl)-1H-pyrazolo[3,4-d]pyrimidin-1-yl)piperidin-1-yl)-4-(methyl(1-methylpiperidin-4-yl)amino)but-2-en-1-one] belongs less than 100 nM; to `CN(C/C=C/C(=O)N1CCC[C@@H](n2nc(-c3ccc(Oc4ccccc4)cc3)c3c(N)ncnc32)C1)C1CCC1` [Example 2ak, (R,E)-1-(3-(4-amino-3-(4-phenoxyphenyl)-1H-pyrazolo[3,4-d]pyrimidin-1-yl)piperidin-1-yl)-4-(cyclobutyl(methyl)amino)but-2-en-1-one], less than 100 nM. Regarding `CN(C/C=C/C(=O)N1CCC[C@@H](n2nc(-c3ccc(Oc4ccccc4)cc3)c3c(N)ncnc32)C1)C1CCCCC1` [Example 2ag, (R,E)-1-(3-(4-amino-3-(4-phenoxyphenyl)-1H-pyrazolo[3,4-d]pyrimidin-1-yl)piperidin-1-yl)-4-(cyclohexyl(methyl)amino)but-2-en-1-one], the IC50 is less than 100 nM.

Turning to `CN(C/C=C/C(=O)N1CC[C@@H](n2nc(-c3ccc(Oc4ccccc4)cc3)c3c(N)ncnc32)C1)c1ccccn1` [Example 1r, (R,E)-1-(3-(4-amino-3-(4-phenoxyphenyl)-1H-pyrazolo[3,4-d]pyrimidin-1-yl)pyrrolidin-1-yl)-4-(methyl(pyridin-2-yl)amino)but-2-en-1-one], the concentration for half-maximal inhibition (IC50) was less than 100 nM. To `CN(C/C=C/C(=O)N1CCC[C@@H](n2nc(-c3ccc(Oc4ccccc4)cc3)c3c(N)ncnc32)C1)[C@H]1CCOC1` [Example 2j, (E)-1-((R)-3-(4-amino-3-(4-phenoxyphenyl)-1H-pyrazolo[3,4-d]pyrimidin-1-yl)piperidin-1-yl)-4-(methyl((S)-tetrahydrofuran-3-yl)amino)but-2-en-1-one] belongs less than 100 nM. To `CN(C/C=C/C(=O)N1CC[C@@H](n2nc(-c3ccc(Oc4ccccc4)cc3)c3c(N)ncnc32)C1)C1CCCC1` [Example 2y, (R,E)-1-(3-(4-amino-3-(4-phenoxyphenyl)-1H-pyrazolo[3,4-d]pyrimidin-1-yl)pyrrolidin-1-yl)-4-(cyclopentyl(methyl)amino)but-2-en-1-one] belongs less than 100 nM. To `CC(C)N(C/C=C/C(=O)N1CC[C@@H](n2nc(-c3ccc(Oc4ccccc4)cc3)c3c(N)ncnc32)C1)C1CC1` [Example 2q, (R,E)-1-(3-(4-amino-3-(4-phenoxyphenyl)-1H-pyrazolo[3,4-d]pyrimidin-1-yl)pyrrolidin-1-yl)-4-(cyclopropyl(isopropyl)amino)but-2-en-1-one] belongs less than 100 nM; to `Nc1ncnc2c1c(-c1ccc(Oc3ccccc3)cc1)nn2[C@@H]1CCCN(C(=O)/C=C/CNc2ccccn2)C1` [Example 1u, (R,E)-1-(3-(4-amino-3-(4-phenoxyphenyl)-1H-pyrazolo[3,4-d]pyrimidin-1-yl)piperidin-1-yl)-4-(pyridin-2-ylamino)but-2-en-1-one], less than 100 nM; to `Nc1ncnc2c1c(-c1ccc(Oc3ccccc3)cc1)nn2[C@@H]1CCN(C(=O)/C=C/CNC2CC2)C1` [Example 3a, (R,E)-1-(3-(4-amino-3-(4-phenoxyphenyl)-1H-pyrazolo[3,4-d]pyrimidin-1-yl)pyrrolidin-1-yl)-4-(cyclopropylamino)but-2-en-1-one], less than 100 nM.

The compound `CN(C(=O)/C=C/CN(C)C1CC1)c1ccc(-n2nc(-c3ccc(Oc4ccccc4)cc3)c3c(N)ncnc32)cc1` [Example 7b, (E)-N-(4-(4-amino-3-(4-phenoxyphenyl)-1H-pyrazolo[3,4-d]pyrimidin-1-yl)phenyl)-4-(cyclopropyl(methyl)amino)-N-methylbut-2-enamide] displayed an IC50 of less than 100 nM. For `Nc1ncnc2c1c(-c1ccc(Oc3ccccc3)cc1)nn2[C@@H]1CCCN(C(=O)/C=C/CNC2CCCCC2)C1` [Example 2ah, (R,E)-1-(3-(4-amino-3-(4-phenoxyphenyl)-1H-pyrazolo[3,4-d]pyrimidin-1-yl)piperidin-1-yl)-4-(cyclohexylamino)but-2-en-1-one] the value was less than 100 nM. With `CN(C/C=C/C(=O)N1CCC[C@@H](n2nc(-c3ccc(Oc4ccccc4)cc3)c3c(N)ncnc32)C1)C1COC1` [Example 2m, (R,E)-1-(3-(4-amino-3-(4-phenoxyphenyl)-1H-pyrazolo[3,4-d]pyrimidin-1-yl)piperidin-1-yl)-4-(methyl(oxetan-3-yl)amino)but-2-en-1-one], the 50% inhibitory concentration (IC50) is less than 100 nM.

Compound `CN(C/C=C/C(=O)N1CCC[C@@H](n2nc(-c3ccc(Oc4ccccc4)cc3)c3c(N)ncnc32)C1)C1CC1` [Example 2ae, (R,E)-1-(3-(4-amino-3-(4-phenoxyphenyl)-1H-pyrazolo[3,4-d]pyrimidin-1-yl)piperidin-1-yl)-4-(cyclopropyl(methyl)amino)but-2-en-1-one] displayed an IC50 of less than 100 nM. With `Nc1ncnc2c1c(-c1ccc(Oc3ccccc3)cc1)nn2[C@@H]1CCN(C(=O)/C=C/CN[C@H]2CCOC2)C1` [Example 2e, (E)-1-((R)-3-(4-amino-3-(4-phenoxyphenyl)-1H-pyrazolo[3,4-d]pyrimidin-1-yl)pyrrolidin-1-yl)-4-((S)-tetrahydrofuran-3-ylamino)but-2-en-1-one], the IC50 was less than 100 nM.

The values are drawn from patent publication US9138436B2, “Inhibitors of Bruton's tyrosine kinase” (PHARMACYCLICS LLC, priority 2011, dated 2015).
